Where two headings read alike, the source gives them in different places.
How the values were obtained:
Assay type in all cases: in vivo, mouse
[1] = test system: MRL/lpr mice; experiment: Antibody secreting B-cell Elispot (anti-Smith Ag, anti-dsDNA, anti-chromatin ASC), spleens of MRL/lpr mice
Experimental: (§1) FIG. 9 depicts frequency of anti-Smith antigen and anti-dsDNA antibody secreting cells in the spleens of MRL/lpr mice. MRL/lpr treated mice spleens were processed for splenocytes for ex vivo Elispot assays. Elispot wells were coated with 10 μg/mL of smith antigen, dsDNA or ovalbumin protein. Fresh, whole splenocytes were added to each well at 500,000 cells per well in cell culture medium. Cells were incubated overnight at 37° C. Developed wells provided spots that were counted as frequency of ASCs per million splenocytes.
as §1, with “10” for “9”, “depicts the” for “depicts”, “anti-chromatin” for “anti-Smith antigen and anti-dsDNA”, “boiled chicken chromatin” for “smith antigen, dsDNA”, “[…]” for “500,000”
B-cell Elispot components are ordered from MabTech (Nacka Strand, Sweden) and nitrocellulose IP filter plates are ordered from Millipore (Billerica, Mass.). Elispot wells are coated with either purified bovine thymus dsDNA (Sigma), purified bovine Smith antigen (GenWay) or boiled filtered purified chicken chromatin from lysed chicken red blood cells (Rockland, Gilbertsville, Pa.) at 10 μg/mL. Spleens are processed using glass homogenization, filtered through a 60 μm sterile cell strainer and red blood cells (RBCs) lysed using BioLegend (San Diego, Calif.) lysis buffer. Processed splenocytes are added to each well in culture medium. To avoid skewing of true ex vivo frequencies of antibody secreting cell types (ASCs), cells are not stimulated with a polyclonal mitogen like LPS, but rather incubated in media alone to allow monitoring of genuine ex vivo antibody release. Anti-mouse pan-IgG is used as a positive control for total IgG producing ASCs and is used to normalize results. Frequencies for each antigen are identified in an initial test phase for each model. For chromatin and total IgG only, 30,000 splenocytes are added to each well; for Smith antigen and dsDNA, 500,000 cells are added to each well. Different numbers of splenocytes are added for different antigens due to saturation limits of spot frequencies per well. These limits are previously established. B-cell Elispots are incubated overnight at 37° C. To develop each assay, secondary antibody is added to each well, incubated, washed and alkaline phosphatase strepavidin is used as the conjugate; substrate used is BCIP-NBT. Plates are developed until spots are visible. All Elispot analyses are performed using an Immunospot C.T.L. scanner and Biospot software (Cellular Technology Ltd., Shaker Heights, Ohio). Results are shown as values from which media and cells only wells are subtracted. Some values are negative due to high background.

[2] = test system: NZM mice; experiment: Survival, NZM lupus nephritis model, ip dosing (Example 2)
[3] = test system: NZM mice

## CC(C)C[C@H](NC(=O)[C@@H](NC(=O)c1cccc(-c2ccccc2)n1)[C@@H](C)O)B(O)O [COMPOUND A, [(1R)-1-[[(2S,3R)-3-hydroxy-2-[6-phenyl-pyridine-2-carbonyl)amino]-1-oxobutyl]amino]-3-methylbutylboronic acid]
[1]; G1: 3 mg/kg iv, 1× wk
  ASC EOS Smith Ag, percent change vs vehicle: −97%
  ASC EOS chromatin, percent change vs vehicle: −89%
  ASC EOS dsDNA, percent change vs vehicle: −80%
[1]; G2: 3 mg/kg iv, 2× wk
  ASC EOS Smith Ag, percent change vs vehicle: −110%
  ASC EOS chromatin, percent change vs vehicle: −98%
  ASC EOS dsDNA, percent change vs vehicle: −84%
[1]; G3: 10 mg/kg po, 2× wk
  ASC EOS Smith Ag, percent change vs vehicle: −86%
  ASC EOS chromatin, percent change vs vehicle: −79%
  ASC EOS dsDNA, percent change vs vehicle: −82%
[1]; Group 1
  anti-Smith Ag IgG ASC frequency decrease vs vehicle: 97%
  anti-dsDNA IgG ASC frequency decrease vs vehicle: 80%
[1]; Group 2
  anti-Smith Ag IgG ASC frequency decrease vs vehicle: 100%
  anti-dsDNA IgG ASC frequency decrease vs vehicle: 84%
[1]; Group 3
  anti-Smith Ag IgG ASC frequency decrease vs vehicle: 86%
  anti-dsDNA IgG ASC frequency decrease vs vehicle: 82%
[2]; COMPOUND A treatment groups, vehicle 45%
  animals remaining at the end of the study (day 310): 100%
[2]; G1 3 mg/kg ip, 1× wk
  EOS survival, percent live mice from original number: 100%
[2]; G1: 3 mg/kg ip once per week
  survival increase relative to vehicle: 55%
[2]; G2 3 mg/kg ip, 2× wk
  EOS survival, percent live mice from original number: 91%
[2]; G2: 3 mg/kg ip twice weekly
  survival increase relative to vehicle: 46%
[2]; both treatment groups of the substance
  mice still alive at day 56: 100%
[3]; G1 3 mg/kg 1× wk ip
  p, serum IL-12p40/p70 concentration vs G5 Bortezomib 0.3 mg/kg 1× wk ip: NS (NS = not significant (p > 0.05))
  p, serum IL-12p40/p70 concentration vs G6 Bortezomib 0.3 mg/kg 2× wk ip: NS (NS = not significant (p > 0.05))
  p, serum IL-12p40/p70 concentration vs G7 CTX 50 mg/kg 1× wk ip: NS (NS = not significant (p > 0.05))
  p, serum IL-12p40/p70 concentration vs G8 Dex 1.5 mg/kg 3× wk ip: NS (NS = not significant (p > 0.05))
  p, serum IL-12p40/p70 concentration vs G9 Vehicle 1× wk ip: p < 0.001
  p, serum IL-13 concentration vs G5 Bortezomib 0.3 mg/kg 1× wk ip: NS (NS = not significant (p > 0.05))
  p, serum IL-13 concentration vs G6 Bortezomib 0.3 mg/kg 2× wk ip: NS (NS = not significant (p > 0.05))
  p, serum IL-13 concentration vs G7 CTX 50 mg/kg 1× wk ip: p < 0.001
  p, serum IL-13 concentration vs G8 Dex 1.5 mg/kg 3× wk ip: NS (NS = not significant (p > 0.05))
  p, serum IL-13 concentration vs G9 Vehicle 1× wk ip: NS (NS = not significant (p > 0.05))
  p, serum IL-17A concentration vs G5 Bortezomib 0.3 mg/kg 1× wk ip: NS (NS = not significant (p > 0.05))
  p, serum IL-17A concentration vs G6 Bortezomib 0.3 mg/kg 2× wk ip: p < 0.01
  p, serum IL-17A concentration vs G7 CTX 50 mg/kg 1× wk ip: p < 0.001
  p, serum IL-17A concentration vs G8 Dex 1.5 mg/kg 3× wk ip: NS (NS = not significant (p > 0.05))
  p, serum IL-17A concentration vs G9 Vehicle 1× wk ip: NS (NS = not significant (p > 0.05))
  p, serum IP-10 concentration vs G5 Bortezomib 0.3 mg/kg 1× wk ip: NS (NS = not significant (p > 0.05))
  p, serum IP-10 concentration vs G6 Bortezomib 0.3 mg/kg 2× wk ip: NS (NS = not significant (p > 0.05))
  p, serum IP-10 concentration vs G7 CTX 50 mg/kg 1× wk ip: p < 0.001
  p, serum IP-10 concentration vs G8 Dex 1.5 mg/kg 3× wk ip: NS (NS = not significant (p > 0.05))
  p, serum IP-10 concentration vs G9 Vehicle 1× wk ip: NS (NS = not significant (p > 0.05))
  p, serum MIG concentration vs G5 Bortezomib 0.3 mg/kg 1× wk ip: NS (NS = not significant (p > 0.05))
  p, serum MIG concentration vs G6 Bortezomib 0.3 mg/kg 2× wk ip: NS (NS = not significant (p > 0.05))
  p, serum MIG concentration vs G7 CTX 50 mg/kg 1× wk ip: p < 0.001
  p, serum MIG concentration vs G8 Dex 1.5 mg/kg 3× wk ip: NS (NS = not significant (p > 0.05))
  p, serum MIG concentration vs G9 Vehicle 1× wk ip: NS (NS = not significant (p > 0.05))
  p, serum TNFα concentration vs G5 Bortezomib 0.3 mg/kg 1× wk ip: NS (NS = not significant (p > 0.05))
  p, serum TNFα concentration vs G6 Bortezomib 0.3 mg/kg 2× wk ip: NS (NS = not significant (p > 0.05))
  p, serum TNFα concentration vs G7 CTX 50 mg/kg 1× wk ip: NS (NS = not significant (p > 0.05))
  p, serum TNFα concentration vs G8 Dex 1.5 mg/kg 3× wk ip: p <0.001
  p, serum TNFα concentration vs G9 Vehicle 1× wk ip: NS (NS = not significant (p > 0.05))
[3]; G1 3 mg/kg ip, 1× wk
  Cytokine IL-12 AUC, percent change vs vehicle: −83%
  Cytokine IL-13 AUC, percent change vs vehicle: −27%
  Cytokine IL-17A AUC, percent change vs vehicle: −41%
  Cytokine IP-10 AUC, percent change vs vehicle: +17%
  Cytokine MIG AUC, percent change vs vehicle: −55%
  Cytokine TNFα AUC, percent change vs vehicle: −61%
[3]; G1: 3 mg/kg ip once per week
  serum IL-12p40/p70 decrease vs vehicle: 83%
[3]; G2 3 mg/kg 2× wk ip
  p, serum IL-12p40/p70 concentration vs G5 Bortezomib 0.3 mg/kg 1× wk ip: NS (NS = not significant (p > 0.05))
  p, serum IL-12p40/p70 concentration vs G6 Bortezomib 0.3 mg/kg 2× wk ip: NS (NS = not significant (p > 0.05))
  p, serum IL-12p40/p70 concentration vs G7 CTX 50 mg/kg 1× wk ip: NS (NS = not significant (p > 0.05))
  p, serum IL-12p40/p70 concentration vs G8 Dex 1.5 mg/kg 3× wk ip: NS (NS = not significant (p > 0.05))
  p, serum IL-12p40/p70 concentration vs G9 Vehicle 1× wk ip: p < 0.01
  p, serum IL-13 concentration vs G5 Bortezomib 0.3 mg/kg 1× wk ip: NS (NS = not significant (p > 0.05))
  p, serum IL-13 concentration vs G6 Bortezomib 0.3 mg/kg 2× wk ip: NS (NS = not significant (p > 0.05))
  p, serum IL-13 concentration vs G7 CTX 50 mg/kg 1× wk ip: P < 0.001
  p, serum IL-13 concentration vs G8 Dex 1.5 mg/kg 3× wk ip: NS (NS = not significant (p > 0.05))
  p, serum IL-13 concentration vs G9 Vehicle 1× wk ip: NS (NS = not significant (p > 0.05))
  p, serum IL-17A concentration vs G5 Bortezomib 0.3 mg/kg 1× wk ip: NS (NS = not significant (p > 0.05))
  p, serum IL-17A concentration vs G6 Bortezomib 0.3 mg/kg 2× wk ip: NS (NS = not significant (p > 0.05))
  p, serum IL-17A concentration vs G7 CTX 50 mg/kg 1× wk ip: p < 0.001
  p, serum IL-17A concentration vs G8 Dex 1.5 mg/kg 3× wk ip: NS (NS = not significant (p > 0.05))
  p, serum IL-17A concentration vs G9 Vehicle 1× wk ip: NS (NS = not significant (p > 0.05))
  p, serum IP-10 concentration vs G5 Bortezomib 0.3 mg/kg 1× wk ip: NS (NS = not significant (p > 0.05))
  p, serum IP-10 concentration vs G6 Bortezomib 0.3 mg/kg 2× wk ip: NS (NS = not significant (p > 0.05))
  p, serum IP-10 concentration vs G7 CTX 50 mg/kg 1× wk ip: p < 0.001
  p, serum IP-10 concentration vs G8 Dex 1.5 mg/kg 3× wk ip: NS (NS = not significant (p > 0.05))
  p, serum IP-10 concentration vs G9 Vehicle 1× wk ip: NS (NS = not significant (p > 0.05))
  p, serum MIG concentration vs G5 Bortezomib 0.3 mg/kg 1× wk ip: NS (NS = not significant (p > 0.05))
  p, serum MIG concentration vs G6 Bortezomib 0.3 mg/kg 2× wk ip: NS (NS = not significant (p > 0.05))
  p, serum MIG concentration vs G7 CTX 50 mg/kg 1× wk ip: p < 0.001
  p, serum MIG concentration vs G8 Dex 1.5 mg/kg 3× wk ip: NS (NS = not significant (p > 0.05))
  p, serum MIG concentration vs G9 Vehicle 1× wk ip: NS (NS = not significant (p > 0.05))
  p, serum TNFα concentration vs G5 Bortezomib 0.3 mg/kg 1× wk ip: NS (NS = not significant (p > 0.05))
  p, serum TNFα concentration vs G6 Bortezomib 0.3 mg/kg 2× wk ip: NS (NS = not significant (p > 0.05))
  p, serum TNFα concentration vs G7 CTX 50 mg/kg 1× wk ip: NS (NS = not significant (p > 0.05))
  p, serum TNFα concentration vs G8 Dex 1.5 mg/kg 3× wk ip: p <0.001
  p, serum TNFα concentration vs G9 Vehicle 1× wk ip: NS (NS = not significant (p > 0.05))
[3]; G2 3 mg/kg ip, 2× wk
  Cytokine IL-12 AUC, percent change vs vehicle: −67%
  Cytokine IL-13 AUC, percent change vs vehicle: −33%
  Cytokine IL-17A AUC, percent change vs vehicle: −89%
  Cytokine IP-10 AUC, percent change vs vehicle: −30%
  Cytokine MIG AUC, percent change vs vehicle: −66%
  Cytokine TNFα AUC, percent change vs vehicle: −57%
[3]; G2: 3 mg/kg ip twice weekly
  serum IL-12p40/p70 decrease vs vehicle: 67%
[3]; both once and twice weekly doses, p<0.001
  serum TNFα compared to Dex: decreased serum TNFα over that of Dex
[3]; once and twice weekly groups
  serum IL-12 decrease vs vehicle, range over the substance's groups: 67-83%
[3]; p<0.001 vs CTX, but not to DEX
  serum CXCL9/MIG as compared to CTX: decreased
[3]; treatment groups
  IL-13 serum levels compared to vehicle: No significant change
  IL-17A serum levels compared to vehicle: No significant change
[3]; twice weekly dose
  serum CXCL10/IP-10 decrease vs vehicle: 30%

— patent US9340559B2, “Proteasome inhibitor delanzomib for use in the treatment of lupus” (Cephalon, Inc., priority 2011, dated 2016)
